Reference: ChEMBL document CHEMBL1201862, “PubChem BioAssay data set” (2004)
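Each compound was tested at five concentrations against cells in 96-well plates for 48 hours. GI50 is the concentration that inhibits growth by half.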 Calls of active or inactive are those of the source. Rule as the data show it: active = GI50 up to about 1.1 µM and inactive = higher.

Tests used:
Assay in all cases: DTP human tumour cell line panel, 48 h
CAKI-1 = test system: CAKI-1
MDA-MB-231 = test system: MDA-MB-231
SF-268 = test system: SF-268
MDA-MB-435 = test system: MDA-MB-435
786-0 = test system: 786-0
HCT-116 = test system: HCT-116
NCI-H23 = test system: NCI-H23
OVCAR-3 = test system: OVCAR-3
A549 = test system: A549
COLO 205 = test system: COLO 205
SK-OV-3 = test system: SK-OV-3
KM12 = test system: KM12
U-251 = test system: U-251
HT-29 = test system: HT-29
OVCAR-8 = test system: OVCAR-8
MOLT-4 = test system: MOLT-4
UACC-62 = test system: UACC-62
LOX IMVI = test system: LOX IMVI
EKVX = test system: EKVX

Measured: GI50

CN(C)c1ccc(/C=N/Nc2nc3ccccc3c(=O)n2-c2ccccc2)cc1
inactive: CAKI-1 > 100 µM | MDA-MB-231 63 µM | SF-268 43.5 µM | MDA-MB-435 > 100 µM | 786-0 23.7 µM | HCT-116 51.5 µM | NCI-H23 > 100 µM | OVCAR-3 27 µM | A549 > 100 µM | COLO 205 > 100 µM | SK-OV-3 72.3 µM | KM12 > 100 µM | U-251 34 µM | HT-29 > 100 µM | OVCAR-8 46.9 µM | MOLT-4 > 100 µM | UACC-62 28.6 µM | LOX IMVI > 100 µM

CCC(CCCN)Nc1cc(OC)cc2cccnc12 (configuration not stated)
inactive: CAKI-1 > 100 µM | MDA-MB-231 53.5 µM | SF-268 > 100 µM | MDA-MB-435 > 100 µM | 786-0 > 100 µM | HCT-116 > 100 µM | OVCAR-3 40.4 µM | A549 > 100 µM | COLO 205 33.6 µM | SK-OV-3 > 100 µM | KM12 > 100 µM | HT-29 32.4 µM | OVCAR-8 > 100 µM | EKVX > 100 µM | MOLT-4 > 10 µM | UACC-62 46.3 µM | LOX IMVI > 100 µM

O=C(c1ccccc1)c1ccc(N2C(=O)/C(=C/c3cccc([N+](=O)[O-])c3)N=C2c2ccccc2)c(N2C(=O)/C(=C/c3cccc([N+](=O)[O-])c3)N=C2c2ccccc2)c1
inactive: CAKI-1 49.8 µM | MDA-MB-231 > 100 µM | SF-268 62.5 µM | MDA-MB-435 4.88 µM | 786-0 79.1 µM | HCT-116 39.4 µM | OVCAR-3 30 µM | A549 11 µM | COLO 205 2.77 µM | SK-OV-3 > 100 µM | KM12 11 µM | U-251 78.7 µM | HT-29 41.9 µM | OVCAR-8 42.5 µM | EKVX > 100 µM | MOLT-4 20.5 µM | UACC-62 20.8 µM | LOX IMVI 42 µM

CCOc1ccc(/N=N/C2C(=O)N(C(=O)CC(=O)Nc3ccccc3OC)N=C2C)cc1 (configuration not stated)
inactive: CAKI-1 > 36.7 µM | MDA-MB-231 > 36.5 µM | SF-268 > 42.8 µM | MDA-MB-435 1.93 µM | 786-0 > 39.1 µM | HCT-116 8.63 µM | NCI-H23 38 µM | OVCAR-3 8.83 µM | A549 > 43.3 µM | COLO 205 > 100 µM | SK-OV-3 > 37.2 µM | KM12 4.35 µM | U-251 > 36 µM | HT-29 4.13 µM | OVCAR-8 59.8 µM | MOLT-4 > 22.3 µM | UACC-62 > 44.3 µM | LOX IMVI 29.7 µM

CC1=CCC([C@@](C)(O)CCCC(C)(C)N=C=S)CC1 (some centres not stated)
inactive: MDA-MB-231 19.1 µM | SF-268 16.8 µM | MDA-MB-435 17.1 µM | 786-0 17.7 µM | HCT-116 13.7 µM | NCI-H23 20.9 µM | OVCAR-3 18.4 µM | A549 17.6 µM | COLO 205 16.1 µM | SK-OV-3 17.9 µM | KM12 15.5 µM | U-251 18.8 µM | HT-29 17.7 µM | OVCAR-8 17.7 µM | EKVX 17 µM | MOLT-4 21.5 µM | UACC-62 16.9 µM | LOX IMVI 16 µM

O=C(/N=N/c1ccccc1Cl)NNc1ccccc1Cl
inactive: CAKI-1 36.7 µM | MDA-MB-231 54.3 µM | SF-268 60.5 µM | MDA-MB-435 31 µM | 786-0 18.5 µM | HCT-116 20.5 µM | NCI-H23 50 µM | OVCAR-3 35 µM | A549 55.5 µM | U-251 41.6 µM | HT-29 93.8 µM | OVCAR-8 27.6 µM | MOLT-4 29.3 µM | UACC-62 43.4 µM | LOX IMVI 23.4 µM

CC1=C(C#N)C(C#N)(C#N)C(NN(C)C)C1 (configuration not stated)
inactive: CAKI-1 1.71 µM | MDA-MB-231 14.2 µM | SF-268 21.7 µM | MDA-MB-435 23.7 µM | 786-0 8.99 µM | HCT-116 11 µM | NCI-H23 17.1 µM | A549 41.5 µM | COLO 205 3.83 µM | SK-OV-3 > 100 µM | KM12 16.6 µM | U-251 33.9 µM | HT-29 15.4 µM | OVCAR-8 26.3 µM | EKVX 14 µM | MOLT-4 18.5 µM | UACC-62 15.9 µM | LOX IMVI 12.6 µM

COc1cc(-c2nc(N)c(C#N)c3c2CCS(=O)(=O)c2ccc(C)cc2-3)cc(OC)c1OC
inactive: CAKI-1 > 100 µM | MDA-MB-231 17.3 µM | SF-268 > 100 µM | MDA-MB-435 > 100 µM | 786-0 19.1 µM | HCT-116 > 100 µM | NCI-H23 25.4 µM | OVCAR-3 > 100 µM | A549 > 100 µM | COLO 205 > 100 µM | KM12 > 100 µM | U-251 24.8 µM | HT-29 > 100 µM | OVCAR-8 4.98 µM | UACC-62 > 100 µM | LOX IMVI > 100 µM

O=[N+]([O-])c1ccc(CSc2nncc3[nH]cnc23)cc1
inactive: CAKI-1 > 100 µM | MDA-MB-231 > 100 µM | MDA-MB-435 93.1 µM | 786-0 > 100 µM | HCT-116 > 100 µM | NCI-H23 > 100 µM | OVCAR-3 > 100 µM | A549 > 100 µM | COLO 205 > 100 µM | SK-OV-3 > 100 µM | KM12 > 100 µM | U-251 > 100 µM | HT-29 > 100 µM | OVCAR-8 > 100 µM | EKVX > 100 µM | MOLT-4 > 100 µM | UACC-62 62.4 µM | LOX IMVI > 100 µM

Cc1cc2nc(N3C(=O)/C(=C/c4ccc(Cl)cc4)N=C3c3ccccc3)sc2cc1C
inactive: CAKI-1 26.4 µM | MDA-MB-231 50 µM | SF-268 30 µM | MDA-MB-435 8.28 µM | 786-0 29.4 µM | HCT-116 18.4 µM | OVCAR-3 15.7 µM | A549 30 µM | COLO 205 16.1 µM | SK-OV-3 46.2 µM | KM12 16.3 µM | U-251 29.9 µM | HT-29 23.9 µM | OVCAR-8 28.4 µM | EKVX 24.4 µM | MOLT-4 53.8 µM | UACC-62 30.8 µM | LOX IMVI 20.5 µM

COCC12CCC(OC)C34C5CC6(O)C(OC)C=C(C5C6OC(=O)c5ccccc5)C(C(OC)C13)C4N(C)C2 (configuration not stated)
inactive: CAKI-1 > 100 µM | MDA-MB-231 > 100 µM | SF-268 > 100 µM | MDA-MB-435 > 100 µM | 786-0 > 100 µM | HCT-116 > 100 µM | NCI-H23 > 100 µM | OVCAR-3 > 100 µM | A549 > 100 µM | COLO 205 > 100 µM | SK-OV-3 > 100 µM | KM12 > 100 µM | U-251 > 100 µM | HT-29 > 100 µM | OVCAR-8 > 100 µM | EKVX > 100 µM | UACC-62 > 100 µM | LOX IMVI > 100 µM
